According to US12269815B2, “Dantrolene prodrugs and methods of their use” (EAGLE RESEARCH LABS LIMITED, priority 2017, dated 2025):
Where two headings read alike, the source gives them in different places.

Assays:
physchem = details: rat, plasma
[1] = cited from earlier work
[2] = not given; remark: listed apart in the source
[3] = Whole-blood pharmacokinetics of Compound 2a in live rats (second analysis); type: in vivo; details: 7.5 mg/kg Compound 2a
[4] = Another pharmacokinetic analysis of Compound 2a in live rats (whole blood and plasma; IV, IM, SC); type: in vivo; details: 7.5 mg/kg Compound 2a
[5] = parameters: species or system Harlan Sprague Dawley rats; details: rat, in vivo, 7.5 mg/kg
Procedure: Compound 2a is formulated at 8 mg/mL in 5% aqueous mannitol (as a tonicity modifier), at pH 8.0. The formulation is administered IV, SC, or IM to cannulated Harlan Sprague Dawley rats (3 rats/group) from Envigo RMS, Inc. (Indianapolis, Ind.). […] Whole blood (0.1 mL) is collected via a jugular vein catheter at 0, 0.033 (IV only), 0.083, 0.167, 0.33, 0.66, 1, 3, 6, and 9 hours. […] Samples are then placed on wet ice until centrifugation to remove precipitate. […] Samples are quantified based on standard curves prepared with each analyte in the precipitated whole blood matrix. […] Area Under the Curve (AUC) is calculated using the trapezoidal rule by SigmaPlot 12.5 software.

[6] = rat, in vivo; for % Bioavailability of dantrolene: 7.5 mg/kg

Structure (SMILES): O=C(O)CCC(=O)OCc1ccc(NC(=O)OCN2C(=O)CN(/N=C/c3ccc(-c4ccc([N+](=O)[O-])cc4)o3)C2=O)cc1 [Compound 17b]
- half-life at 100 μg/mL (physchem): 7.45 h

Structure (SMILES): O=C1CN(/N=C/c2ccc(-c3ccc([N+](=O)[O-])cc3)o2)C(O)=N1 [Dantrolene, 1-{[5-(4-nitrophenyl)-2-furyl]methylideneamino}imidazolidine-2,4-dione]
- solubility in water [1]: very poorly soluble in water

Structure (SMILES): Cl.NCC(=O)OCN1C(=O)CN(/N=C/c2ccc(-c3ccc([N+](=O)[O-])cc3)o2)C1=O [Compound 22c]
- half-life of prodrug in rat plasma: 0.0533 h
- reconversion in phosphate-buffered saline [2]: 85%

Structure (SMILES): O=C1CN(/N=C/c2ccc(-c3ccc([N+](=O)[O-])cc3)o2)C(=O)N1COP(=O)([O-])[O-].[Na+].[Na+] [Compound 2a]
- % Bioavailability of dantrolene ([3]; IM): 95.3%
- % Bioavailability of dantrolene ([3]; IV): 100%
- % Bioavailability of dantrolene ([4]; plasma, IM): 56.7%
- % Bioavailability of dantrolene ([4]; plasma, IV): 100%
- % Bioavailability of dantrolene ([4]; plasma, SC): 49.7%
- % Bioavailability of dantrolene ([4]; whole blood, IM): 80.8%
- % Bioavailability of dantrolene ([4]; whole blood, IV): 100%
- % Bioavailability of dantrolene ([4]; whole blood, SC): 64.0%
- appearance of dantrolene in the blood after administration [5]: rapid appearance of dantrolene in the blood
- half-life of prodrug in rat plasma: 1.37 h
- conversion to dantrolene in phosphate-buffered saline [2]: no conversion was observed
- amount of 2a observed after administration [6]: only trace amounts
- % Bioavailability of dantrolene ([6]; im): 77.8%
- % Bioavailability of dantrolene ([6]; iv): 100%
